Measured values as given in PubChem BioAssay AID1918953 (Molecular Pharmacology Branch, DTP, NCI, 2023).
pIC50: −log10 of the molar value.

Test system: MDA-MB-231 complex spheroid viability
Test: Anticancer human tumor MDA-MB-231/ATCC cell line growth inhibition;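 note: drug exposure lasted 7 days starting on day 3 of spheroid growth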
Details: for pIC50: curve of first compound; for viability, T/C: stronger effect = lower value
Procedure, shortened: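 Drug combinations with the LSD1 inhibitor iadademstat tested on tumor cells co-cultured as spheroids with endothelial cells and mesenchymal stem cells. Concentrations descended in half-log increments from clinical Cmax or 10 microM.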

[1] = second compound 0.1 µM, first compound 0.0316 µM
[2] = second compound 0.1 µM, first compound 0.1 µM
[3] = second compound 0.1 µM, first compound 0.316 µM
[4] = second compound 0.1 µM, first compound 1 µM
[5] = second compound 0.316 µM, first compound 0.0316 µM
[6] = second compound 0.316 µM, first compound 0.1 µM
[7] = second compound 0.316 µM, first compound 0.316 µM
[8] = second compound 0.316 µM, first compound 1 µM
[9] = second compound 1 µM, first compound 0.0316 µM
[10] = second compound 1 µM, first compound 0.1 µM
[11] = second compound 1 µM, first compound 0.316 µM
[12] = second compound 1 µM, first compound 1 µM
[13] = second compound 3.16 µM, first compound 0.0316 µM
[14] = second compound 3.16 µM, first compound 0.1 µM
[15] = second compound 3.16 µM, first compound 0.316 µM
[16] = second compound 3.16 µM, first compound 1 µM
[17] = second compound 10 µM, first compound 0.0316 µM
[18] = second compound 10 µM, first compound 0.1 µM
[19] = second compound 10 µM, first compound 0.316 µM
[20] = second compound 10 µM, first compound 1 µM

## COc1ccc([C@@H](O)c2cc(-c3ncnc4cc(N5CCOCC5)ccc34)c(F)cc2Cl)nn1 + NC1CC1c1ccc(-c2cccc(O)c2)cc1
Second compound 0.1 µM
  pIC50: 6.44
Second compound 0.316 µM
  pIC50: 6.76
Second compound 1 µM
  pIC50: 7.08
Second compound 3.16 µM
  pIC50: 6.79
Second compound 10 µM
  pIC50: > 7.50
[1]
  viability, T/C: 74.9%
[2]
  viability, T/C: 65.6%
[3]
  viability, T/C: 53%
[4]
  viability, T/C: 33.1%
Second compound 0.1 µM, first compound 3.16 µM
  viability, T/C: 17.1%
Second compound 0.1 µM, first compound 10 µM
  viability, T/C: 12.8%
[5]
  viability, T/C: 57.1%
[6]
  viability, T/C: 58.5%
[7]
  viability, T/C: 42.3%
[8]
  viability, T/C: 28.9%
Second compound 0.316 µM, first compound 3.16 µM
  viability, T/C: 18%
Second compound 0.316 µM, first compound 10 µM
  viability, T/C: 13.1%
[9]
  viability, T/C: 59.3%
[10]
  viability, T/C: 48.3%
[11]
  viability, T/C: 36%
[12]
  viability, T/C: 27.4%
Second compound 1 µM, first compound 3.16 µM
  viability, T/C: 16.2%
Second compound 1 µM, first compound 10 µM
  viability, T/C: 11%
[13]
  viability, T/C: 58.5%
[14]
  viability, T/C: 54.2%
[15]
  viability, T/C: 43.7%
[16]
  viability, T/C: 29.1%
Second compound 3.16 µM, first compound 3.16 µM
  viability, T/C: 14.8%
Second compound 3.16 µM, first compound 10 µM
  viability, T/C: 11.6%
[17]
  viability, T/C: 44.8%
[18]
  viability, T/C: 43.7%
[19]
  viability, T/C: 31.6%
[20]
  viability, T/C: 20.2%
Second compound 10 µM, first compound 3.16 µM
  viability, T/C: 13.5%
Second compound 10 µM, first compound 10 µM
  viability, T/C: 10.2%

## Nc1ncn(C2CC(O)C(CO)S2)c(=O)n1 (stereo not given) + NC1CC1c1ccc(-c2cccc(O)c2)cc1
Second compound 0.1 µM
  pIC50: 8.13
Second compound 0.316 µM
  pIC50: 8.24
Second compound 1 µM
  pIC50: 8.50
Second compound 3.16 µM
  pIC50: 8.38
Second compound 10 µM
  pIC50: 8.97
Second compound 0.1 µM, first compound 0.000949 µM
  viability, T/C: 68.5%
Second compound 0.1 µM, first compound 0.003 µM
  viability, T/C: 61.9%
Second compound 0.1 µM, first compound 0.00949 µM
  viability, T/C: 45.6%
Second compound 0.1 µM, first compound 0.03 µM
  viability, T/C: 32.4%
Second compound 0.1 µM, first compound 0.0949 µM
  viability, T/C: 17%
Second compound 0.1 µM, first compound 0.3 µM
  viability, T/C: 11.3%
Second compound 0.316 µM, first compound 0.000949 µM
  viability, T/C: 60.4%
Second compound 0.316 µM, first compound 0.003 µM
  viability, T/C: 59.5%
Second compound 0.316 µM, first compound 0.00949 µM
  viability, T/C: 43.5%
Second compound 0.316 µM, first compound 0.03 µM
  viability, T/C: 27.6%
Second compound 0.316 µM, first compound 0.0949 µM
  viability, T/C: 17.8%
Second compound 0.316 µM, first compound 0.3 µM
  viability, T/C: 9.51%
Second compound 1 µM, first compound 0.000949 µM
  viability, T/C: 54%
Second compound 1 µM, first compound 0.003 µM
  viability, T/C: 53.4%
Second compound 1 µM, first compound 0.00949 µM
  viability, T/C: 39.1%
Second compound 1 µM, first compound 0.03 µM
  viability, T/C: 28.5%
Second compound 1 µM, first compound 0.0949 µM
  viability, T/C: 18.3%
Second compound 1 µM, first compound 0.3 µM
  viability, T/C: 10.4%
Second compound 3.16 µM, first compound 0.000949 µM
  viability, T/C: 59.4%
Second compound 3.16 µM, first compound 0.003 µM
  viability, T/C: 53.7%
Second compound 3.16 µM, first compound 0.00949 µM
  viability, T/C: 41.1%
Second compound 3.16 µM, first compound 0.03 µM
  viability, T/C: 31%
Second compound 3.16 µM, first compound 0.0949 µM
  viability, T/C: 16.1%
Second compound 3.16 µM, first compound 0.3 µM
  viability, T/C: 9.57%
Second compound 10 µM, first compound 0.000949 µM
  viability, T/C: 51.1%
Second compound 10 µM, first compound 0.003 µM
  viability, T/C: 41.2%
Second compound 10 µM, first compound 0.00949 µM
  viability, T/C: 28.2%
Second compound 10 µM, first compound 0.03 µM
  viability, T/C: 19.5%
Second compound 10 µM, first compound 0.0949 µM
  viability, T/C: 12.1%
Second compound 10 µM, first compound 0.3 µM
  viability, T/C: 9.21%

## O=C(C=Cn1cnc(-c2cc(C(F)(F)F)cc(C(F)(F)F)c2)n1)NNc1cnccn1 + NC1CC1c1ccc(-c2cccc(O)c2)cc1
Second compound 0.1 µM
  pIC50: > 8.50
Second compound 0.316 µM
  pIC50: > 8.50
Second compound 1 µM
  pIC50: > 8.50
Second compound 3.16 µM
  pIC50: > 8.50
Second compound 10 µM
  pIC50: > 8.50
Second compound 0.1 µM, first compound 0.00316 µM
  viability, T/C: 27.7%
Second compound 0.1 µM, first compound 0.01 µM
  viability, T/C: 27.4%
[1]
  viability, T/C: 13.1%
[2]
  viability, T/C: 5.67%
[3]
  viability, T/C: 4.44%
[4]
  viability, T/C: 5.61%
Second compound 0.316 µM, first compound 0.00316 µM
  viability, T/C: 28.6%
Second compound 0.316 µM, first compound 0.01 µM
  viability, T/C: 27.3%
[5]
  viability, T/C: 13.2%
[6]
  viability, T/C: 5.36%
[7]
  viability, T/C: 5.11%
[8]
  viability, T/C: 5.35%
Second compound 1 µM, first compound 0.00316 µM
  viability, T/C: 25.6%
Second compound 1 µM, first compound 0.01 µM
  viability, T/C: 25.4%
[9]
  viability, T/C: 14.6%
[10]
  viability, T/C: 4.77%
[11]
  viability, T/C: 4.77%
[12]
  viability, T/C: 4.71%
Second compound 3.16 µM, first compound 0.00316 µM
  viability, T/C: 27%
Second compound 3.16 µM, first compound 0.01 µM
  viability, T/C: 25%
[13]
  viability, T/C: 13.6%
[14]
  viability, T/C: 5.37%
[15]
  viability, T/C: 6.01%
[16]
  viability, T/C: 4.79%
Second compound 10 µM, first compound 0.00316 µM
  viability, T/C: 22.5%
Second compound 10 µM, first compound 0.01 µM
  viability, T/C: 17.5%
[17]
  viability, T/C: 14.9%
[18]
  viability, T/C: 5.78%
[19]
  viability, T/C: 6.15%
[20]
  viability, T/C: 7.13%
